Measured values published in patent US12630521B2, “Arylamides and methods of use thereof” (Genzyme Corporation, priority 2019, dated 2026).

What was measured:
[1] = biological target: T1, CFTR (ΔF508 homozygous CF-HBE cells) (Homo sapiens, UniProt P13569, DEL508-508); experiment: TECC24 AUC fold over DMSO @10 uM: CFTR-mediated transepithelial chloride transport in primary CF-HBE cells; format: cell-based; conditions: 10 μM test agent, 48 hours, forskolin-stimulated IEQ AUC divided by vehicle AUC
T1 construct: Primary human bronchial epithelial cells from a ΔF508 homozygous CF donor; host or cells: primary CF-HBE cells (ΔF508/ΔF508 donor)
T1 sequence (P13569 with tags, fused parts or gaps DEL508-508): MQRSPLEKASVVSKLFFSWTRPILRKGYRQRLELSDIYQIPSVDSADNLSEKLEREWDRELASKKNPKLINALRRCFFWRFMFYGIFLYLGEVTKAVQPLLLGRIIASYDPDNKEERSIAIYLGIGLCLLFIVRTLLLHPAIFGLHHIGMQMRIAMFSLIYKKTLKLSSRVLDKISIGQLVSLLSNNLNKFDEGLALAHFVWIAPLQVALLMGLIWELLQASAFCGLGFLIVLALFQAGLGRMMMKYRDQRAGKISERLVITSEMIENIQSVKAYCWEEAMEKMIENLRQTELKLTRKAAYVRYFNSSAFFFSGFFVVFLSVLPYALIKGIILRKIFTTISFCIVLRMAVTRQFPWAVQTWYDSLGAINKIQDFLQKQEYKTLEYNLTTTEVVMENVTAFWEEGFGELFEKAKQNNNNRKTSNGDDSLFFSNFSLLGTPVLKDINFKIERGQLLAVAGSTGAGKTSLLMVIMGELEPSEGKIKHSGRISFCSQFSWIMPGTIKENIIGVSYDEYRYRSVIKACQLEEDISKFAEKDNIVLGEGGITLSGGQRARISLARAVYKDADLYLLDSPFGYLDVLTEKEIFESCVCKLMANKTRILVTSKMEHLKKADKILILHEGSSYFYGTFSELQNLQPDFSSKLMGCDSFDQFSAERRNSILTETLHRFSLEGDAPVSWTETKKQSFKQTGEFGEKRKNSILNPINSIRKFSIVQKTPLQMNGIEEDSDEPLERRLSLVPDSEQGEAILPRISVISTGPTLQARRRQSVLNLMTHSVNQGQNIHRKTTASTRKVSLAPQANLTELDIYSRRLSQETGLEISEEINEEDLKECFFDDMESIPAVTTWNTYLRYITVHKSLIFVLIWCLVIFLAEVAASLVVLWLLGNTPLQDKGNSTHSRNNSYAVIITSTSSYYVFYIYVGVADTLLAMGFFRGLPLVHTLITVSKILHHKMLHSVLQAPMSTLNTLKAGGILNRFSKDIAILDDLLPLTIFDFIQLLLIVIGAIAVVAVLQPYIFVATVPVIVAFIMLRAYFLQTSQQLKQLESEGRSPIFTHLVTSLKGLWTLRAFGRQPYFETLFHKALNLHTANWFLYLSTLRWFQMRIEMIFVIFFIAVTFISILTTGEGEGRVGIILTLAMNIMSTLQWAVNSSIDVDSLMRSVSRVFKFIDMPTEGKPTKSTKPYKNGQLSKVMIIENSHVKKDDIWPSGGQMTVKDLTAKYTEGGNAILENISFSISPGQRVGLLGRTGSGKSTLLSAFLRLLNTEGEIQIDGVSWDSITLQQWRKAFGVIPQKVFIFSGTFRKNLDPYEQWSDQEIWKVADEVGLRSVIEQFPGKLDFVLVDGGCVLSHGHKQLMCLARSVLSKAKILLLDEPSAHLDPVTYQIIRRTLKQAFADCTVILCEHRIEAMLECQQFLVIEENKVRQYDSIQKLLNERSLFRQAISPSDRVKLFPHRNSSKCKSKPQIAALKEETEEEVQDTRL
Method: Example 37: TECC24 AUC Fold Over DMSO @10 uM
The effects of a test agent on CFTR-mediated transepithelial chloride transport was measured using TECC24 recording analysis. Test agents were solubilized in DMSO. Solubilized test agents were mixed with incubation medium containing DMEM/F12, Ultroser G (2%; Crescent Chemical, catalog #67042), Hyclone Fetal Clone 11(2%; GE Healthcare, catalog #SH30066.02), bovine brain extract (0.25%; Lonza, catalog #CC-4098), insulin (2.5 μg/mL), IL-13 (10 ng/mL), hydrocortisone (20 nM), transferrin (2.5 μg/mL), triiodothyronine (500 nM), ethanolamine (250 nM), epinephrine (1.5 μM), phosphoethanolamine (250 nM), and retinoic acid (10 nM). Primary human bronchial epithelial cells from a ΔF508 homozygous CF donor (CF-HBE cells; from University of North Carolina Cystic Fibrosis Tissue Procurement Center), grown on Transwell HTS 24-well cell culture inserts (Costar, catalog #3378), were exposed to test agents or controls dissolved in incubation medium. The CF-HBE cells were cultured at 36.5° C. for 48 hours before TECC24 recordings were performed in the presence or absence of test agent, a positive control or vehicle (DMSO).
Following incubation, the transwell cell culture inserts containing the test agent or control-treated CF-HBE cells were loaded onto a TECC24 apparatus (TECC v7 or MTECC v2; EP Design) to record the transepithelial voltage (VT) and resistance (TEER) using 4 AgCl electrodes per well configured in current-clamp mode. The apical and basolateral bath solutions both contained (in mM) 140 NaCl, 5 KCl, 2 CaCl2, 1 MgCl2, 10 Hepes, and 10 glucose (adjusted to pH 7.4 with NaOH). To inhibit basal Na+ absorption, the ENaC inhibitor benzamil (10 μM) was added to the bath. Then, the adenylate cyclase activator, forskolin (10 μM), was added to the bath to activate CFTR. The forskolin-stimulated Cl— transport was halted by addition of CFTR inhibitor-172 (20 μM) to the bath at the end of the experiment to confirm specificity. VT and TEER recordings were digitally acquired at routine intervals using TECC or MTECC software (EP Design). VT and TEER were transformed into equivalent transepithelial Cl-current (IEQ), and the Area Under the Curve (AUC) of the IEQ time course between forskolin and CFTR inhibitor-172 addition is generated using Excel (Microsoft). Efficacy is expressed as the ratio of the test agent AUC divided by vehicle AUC. EC50s based on AUC are generated using the non-linear regression log(agonist) vs. response function in Prism software (GraphPad) with Hill Slope fixed=1.
If a test agent increased the AUC of the forskolin-stimulated IEQ relative to vehicle in CF-HBE cells, and this increase was inhibited by CFTR inhibitor-172, then the test agent was considered a CFTR corrector.

[2] = biological target: T2, human Cystic Fibrosis Transmembrane Conductance Regulator (CFTR) harboring the ΔF508 mutation (Homo sapiens, UniProt P13569, DEL508-508); experiment: H441 cell Emax and EC50: HRP-tagged ΔF508-CFTR cell-surface luminescence assay; format: cell-based; conditions: H441 cells expressing HRP-tagged ΔF508-CFTR, 27° C. for two nights; for EC50: 15-point dose-response; for Emax: NCI-H441, % of maximum VX809 signal
T2 construct: expressed in transfected cells; host or cells: H441 carcinoma cell line (G418 selection)
T2 sequence (P13569 with tags, fused parts or gaps DEL508-508): as above
From the text: Example 36: H441 Cell Emax and EC50
Two cell lines were used, the H441 carcinoma line and the CFHBE41o− (41o−) human bronchial epithelial line. Both cell lines expressed human Cystic Fibrosis Transmembrane Conductance Regulator (CFTR) harboring the ΔF508 mutation and with an in-frame fusion in CFTR extracellular loop 4 of Horse Radish Peroxidase (HRP) under control of the CMV promoter. In the presence of the HRP tag, ΔF508-CFTR transported to the cell surface was detectable upon addition of an HRP substrate (Luminata Forte). Both cell types were cultivated at 37° C. with CO2.
For both cell types, the medium was changed every other day unless the culture was at low % confluence. Cells were used for the assays at ˜75% confluence.
DMSO/Compound Dilutions Plate for 15-Point Dose-Response Testing
To a polypropylene (PP) 384-well plate, 15 μls DMSO was added to all wells in columns 1-22 and 24 (low Control). 15 μls of 260 μM VX809 (Lumacaftor), Selleckchem S1565, was added to column 23 wells (high Control). 15 μls of 10 mM test compound or VX809 (control) were added to wells of row A. Serial dilutions of Row A compound were performed 2×15 μls in rows A through 0 (15-point).
A PP, 384-well plate containing the appropriate cell culture medium was prepared for each assay plate with 100 μls per well. For the doxycycline-induced 41o− cells, doxycycline for both the assay plate and the medium dilution plate was added at 0.0005 mg/ml to the medium.
Both cell lines were plated for the assay at 30 μls per 384-well at 3.4×10^e5 cells per ml (˜10K cells/well). H441 cells were plated on opaque, white, Corning plate 3704. 41o− cells were plated on collagen-coated opaque, white, Corning plate 356665. For 41o− cells, doxycycline was added to the medium.
Compound Addition/Assay Incubation
Using FX (Beckman) protocol, 10 μls diluted compound or medium was added per well to the Assay Plate as: 2 μls DMSO Dilution plate well is diluted in 100 μls of the Medium Dilution Plate well, mixed, and 10 μls is transferred to the Assay Plate.
The final assay dilution series is 24.5, 12.3, 6.1, 3.1, 1.5, 0.8, 0.4, 0.2, 0.1, 0.05, 0.02, 0.01, 0.006, 0.003, 0.001 and 0 μM. The 41o− assay plates were incubated at 37° C. w/CO2, the H441 assay plates were incubated at 27° C. w/CO2, each overnight for two nights.
Assay Result Determination
After being brought to room temperature, the assay plate liquid was removed. 30 uls of Luminata Forte (Millipore ELLUF0100) was added per well and incubated at room temperature for 10 min. The plates were then read on a Topcount, protocol LumiMatti (CPS, luminescence). The data was analyzed for % of maximum, maximum VX809 signal, and EC50 using Pearl and SPEED tools.

Row | Structure (SMILES) | TECC24 AUC fold over DMSO [1] | EC50 [2] | Emax [2]
1 | CC(C)(c1ccccc1)C(NC(=O)c1ccc2sccc2c1OCC1CCC(F)(F)CC1)C(=O)O (centres unmarked) [Compound 32-2, 2-(4-((4,4-difluorocyclohexyl)methoxy)-benzo[b]thiophene-5-carboxamido)-3-methyl-3-phenylbutanoic acid] | C (“C” refers to AUC @10 μM < 4) | 3.2 µM | 112%
2 | CC1(C(NC(=O)c2ccc3sccc3c2OCC2CCC(F)(F)CC2)C(=O)O)CCCCC1 (centres unmarked) [Compound 32-4, 2-(4-((4,4-difluorocyclohexyl)methoxy)-benzo[b]thiophene-5-carboxamido)-2-(1-methylcyclohexyl)acetic acid] | C (“C” refers to AUC @10 μM < 4) | 4.37 µM | 78.7%
3 | CC(C)(c1ccccc1)C(NC(=O)c1ccc2sccc2c1OCc1ccc(SC(F)(F)F)cc1)C(=O)O (centres unmarked) [Compound 32-5, 3-methyl-3-phenyl-2-(4-((4-((trifluoromethyl)thio)benzyl)oxy)-benzo[b]thiophene-5-carboxamido)butanoic acid] | C (“C” refers to AUC @10 μM < 4) | 0.496 µM | 93.5%
4 | CC1(C(NC(=O)c2ccc3sccc3c2OCc2ccc(OC(F)(F)F)cc2)C(=O)O)CCCCC1 (centres unmarked) [Compound 32-6, 2-(1-methylcyclohexyl)-2-(4-((4-(trifluoromethoxy)benzyl)oxy)-benzo[b]thiophene-5-carboxamido)acetic acid] | C (“C” refers to AUC @10 μM < 4) | 3.3 µM | 142%
5 | CC(C)(C)[C@H](NC(=O)c1ccc2sccc2c1OCC1CCC(F)(F)CC1)C(=O)O [Compound 32-7, (2S)-2-(4-((4,4-difluorocyclohexyl)methoxy)-benzo[b]thiophene-5-carboxamido)-3,3-dimethylbutanoic acid] | C (“C” refers to AUC @10 μM < 4) | 6.89 µM | 127%
6 | CC(C)(C)[C@H](NC(=O)c1ccc2sccc2c1OCc1ccc(OC(F)F)cc1)C(=O)O [Compound 32-8, (2S)-2-(4-((4-(difluoromethoxy)benzyl)oxy)-benzo[b]thiophene-5-carboxamido)-3,3-dimethylbutanoic acid] |  | 4.56 µM | 4.1%
7 | CC(C)(C)[C@H](NC(=O)c1ccc2sccc2c1OCc1ccc(C(F)(F)F)cc1)C(=O)O [Compound 32-9, (2S)-3,3-dimethyl-2-(4-((4-(trifluoromethyl)benzyl)oxy)-benzo[b]thiophene-5-carboxamido)butanoic acid] | C (“C” refers to AUC @10 μM < 4) | 1.08 µM | 193%
8 | CCC(C)(C)[C@H](NC(=O)c1ccc2sccc2c1OCC1CCC(F)(F)CC1)C(=O)O [Compound 32-10, (2S)-2-(4-((4,4-difluorocyclohexyl)methoxy)-benzo[b]thiophene-5-carboxamido)-3,3-dimethylpentanoic acid] | C (“C” refers to AUC @10 μM < 4) | 7.31 µM | 85.3%
9 | CC(C)(C)[C@H](NC(=O)c1ccc2sccc2c1OCc1ccc(SC(F)(F)F)cc1)C(=O)O [Compound 32-11, (2S)-3,3-dimethyl-2-(4-((4-((trifluoromethyl)thio)benzyl)oxy)-benzo[b]thiophene-5-carboxamido)butanoic acid] | B (“B” refers to AUC @10 μM between 4-6) | 1.04 µM | 81.3%

The remaining lines, values ahead:

Row | TECC24 AUC fold over DMSO [1] | EC50 [2] | Emax [2] | Structure (SMILES)
10 | A (“A” refers to AUC @10 μM > 6) |  |  | CC(C)(C)[C@H](NC(=O)c1ccc2sc(C(F)F)nc2c1OCc1ccc(C(F)(F)F)cc1)C(=O)O [Compound 35-4, (2S)-2-[[2-(difluoromethyl)-4-[[4-(trifluoromethyl)phenyl]methoxy]-1,3-benzothiazole-5-carbonyl]amino]-3,3-dimethyl-butanoic acid]
11 | A (“A” refers to AUC @10 μM > 6) |  |  | CC(C)(C)[C@H](NC(=O)c1ccc2sc(C3CC3)nc2c1OCc1ccc(C(F)(F)F)cc1)C(=O)O [Compound 35-5, (2S)-2-[[2-cyclopropyl-4-[[4-(trifluoromethyl)phenyl]methoxy]-1,3-benzothiazole-5-carbonyl]amino]-3,3-dimethyl-butanoic acid]
12 | A (“A” refers to AUC @10 μM > 6) |  |  | CCC(C)(C)[C@H](NC(=O)c1ccc2sc(C3CC3)nc2c1OCc1ccc(C(F)(F)F)cc1)C(=O)O [Compound 35-6, (2S)-2-[[2-cyclopropyl-4-[[4-(trifluoromethyl)phenyl]methoxy]-1,3-benzothiazole-5-carbonyl]amino]-3,3-dimethyl-pentanoic acid]
13 | A (“A” refers to AUC @10 μM > 6) |  |  | CC(C)(C)[C@H](NC(=O)c1ccc2sc(C3CCCC3)nc2c1OCc1ccc(C(F)(F)F)cc1)C(=O)O [Compound 35-7, (2S)-2-[[2-cyclopentyl-4-[[4-(trifluoromethyl)phenyl]methoxy]-1,3-benzothiazole-5-carbonyl]amino]-3,3-dimethyl-butanoic acid]
14 | A (“A” refers to AUC @10 μM > 6) |  |  | CC(C)(C)[C@H](NC(=O)c1ccc2sc(C3(F)CC3)nc2c1OCc1ccc(C(F)(F)F)cc1)C(=O)O [Compound 35-8, (2S)-2-[[2-(1-fluorocyclopropyl)-4-[[4-(trifluoromethyl)phenyl]methoxy]-1,3-benzothiazole-5-carbonyl]amino]-3,3-dimethyl-butanoic acid]
15 | A (“A” refers to AUC @10 μM > 6) |  |  | CC(C)(C)[C@H](NC(=O)c1ccc2sc(C3CCC3)nc2c1OCc1ccc(C(F)(F)F)cc1)C(=O)O [Compound 35-9, (2S)-2-[[2-cyclobutyl-4-[[4-(trifluoromethyl)phenyl]methoxy]-1,3-benzothiazole-5-carbonyl]amino]-3,3-dimethyl-butanoic acid]
